Experimental data as given in patent US4303672A, “Cyclopropanecarboxylate insecticides and/or acaricides exhibiting low toxicity to mammals and fish” (priority 1979, dated 1981).
Converted amounts (≈) assume the structure as drawn. Where two headings read alike, the source gives them in different places.

What was measured:
[1] = test system: green rice leafhopper (Nephotettix cincticeps); test: Test Example 6: simulated paddy field test, green rice leafhopper; type: in vivo; settings: 100 ppm at 100 liter/10 are, after 48 hours
Procedure: (§1) The wettable powder of each of the present compounds (1), (2), (4) and (5) prepared in Preparation Example 4 was diluted with water so that the concentration of active ingredient was 100 ppm. Soil was placed in a plastic box [5 m×5 m×2 m (deep)] to a level of 50 cm from the bottom, and rice plants about 50 cm high were transplanted at intervals of 50 cm. Water was then placed in the box so that water depth was 5 cm, and 20 killifishes (Oryzias latipes) were liberated therein. Thereafter, the above dilute solution was sprayed on the box at a rate of 100 liter/10 are. The solution fell on the rice plants as well as on the water surface.
(§2) One hour after treatment, 100 female adults of green rice leafhopper (Nephotettix cincticeps) were liberated in the box which was immediately covered with a net.

[2] = Test Example 7: Test for toxicity to fishes (fry carp); type: in vivo, fry carp (Cyprinus carpio); settings: water, read-out: Toxicity to fishes TLm48
Procedure: (§3) Toxicity to killifish (Oryzias latipes) was tested according to the test method for toxicity to fishes described in Notification B No. 2735 of the Ministry of Agriculture and Forestry (Nov. 25, 1965). Namely, each of the present compounds (1), (4), (5) and (6) was dissolved or suspended in "Tween 80" and diluted successively with dechlorinated tap water. Ten killifish (0.2-0.3 g per fish) were released in a 10-liter glass vessel containing 5 liters of each preparation.
Toxicity to fry carp (Cyprinus carpio) was tested according to the test method for toxicity to fishes described in Notification B No. 2735 of the Ministry of Agriculture and Forestry (Nov. 25, 1965). The comparative test was made in a manner similar to that of Test Example 1.

[3] = test system: killifishes (Oryzias latipes); test: Test Example 6: simulated paddy field test, killifish; type: in vivo; settings: 100 ppm at 100 liter/10 are, water depth 5 cm, after 48 hours
Procedure: as §1, §2

[4] = test system: green rice leafhopper (Nephotettix cincticeps); test: Test Example 1: Test for insecticidal activity (green rice leafhopper); type: in vivo; settings: green rice leafhopper R-strain, spray on rice plant, 26° C., 24 hours, 3 replications, read-out: LC50 (median lethal concentration)
From the text: The emulsifiable concentrates of the present compounds and reference compound prepared in Preparation Example 1 were each formulated into test solutions having four different concentrations of active ingredient between 500 ppm and 0.5 ppm. Each test solution was sprayed on rice plant in a 180-ml plastic cup which had elapsed one month after sowing, at a rate of 15 cc/2 cups by means of a turn table. After air-drying, the rice plant was covered with a wire-screen cage, and 15 female adults of green rice leafhopper (Nephotettix cincticeps) (a strain resistant to carbamates and organo-phosphates, hereinafter referred to as R-strain) were liberated therein. The plant was placed in an artificial climate chamber kept at 26° C. After 24 hours, the dead and alive were examined. The median lethal concentration [LC50 (ppm)] was calculated from the mortality determined by 3 replications.
(§4) A detailed explanation will be given as to a method of how to calculate the safety coefficient. In the case of green rice leafhoppers, calculation was based on the concentration of active ingredient in water obtained by applying a test solution containing the active ingredient in an amount corresponding to LC50 (ppm) to a flooded paddy field 5 cm deep at a rate of 100 liter/10 are, provided that all the active ingredient applied entered the water.
(§5) In this case, the coefficient is 333, which means that the present compound (1) has a 333-fold safety.

[5] = test system: yellow fever mosquito (Aedes aegypti); type: in vivo; settings: 50 mg granule in 100 cc water, full grown larvae, 24 hours
Procedure: Fifty milligrams of the granule of the present compound (1) obtained in Preparation Example 6 was placed in a 100-cc beaker containing 100 cc of distilled water, and 30 full grown larvae of yellow fever mosquito (Aedes aegypti) were liberated therein. After 24 hours, 100% of the larvae could be killed.

[6] = test system: killifish (Oryzias latipes); test: Test Example 1: Test for toxicity to fishes (killifish); type: in vivo; settings: TLm48 killifish (a) / concentration of active ingredient in water (b) at green rice leafhopper LC50
Procedure: as §3
(§6) In order to make it clearer that the present compounds have a low toxicity to fishes as well as a high insecticidal activity, a safety coefficient to fishes was calculated from the test results of toxicity to fishes and insecticidal activity. [formula]
as §4, §5

[7] = as above; type: in vivo, killifish (Oryzias latipes); settings: water; killifish, 48 hours; read-out: Toxicity to fishes TLm48 (medium tolerance limit, 48 hours)
Procedure: as §3, §6, §4, §5

[8] = test system: green rice leafhopper (Nephotettix cincticeps); test: Test Example 5: Residual effect test (green rice leafhopper); type: in vivo
Procedure: The emulsifiable concentrate of the present compound (1) prepared in Preparation Example 1 was diluted with water so that the concentration of active ingredient was 400 ppm. Thereafter, 20 cc of the dilute solution was sprayed on rice plants grown in a 1/10,000 are Wagner's pot. The rice plants were air-dried and covered with a wire-screen cage, and 15 female adults of green rice leafhopper (Nephotettix cincticeps) were liberated therein. After 24 hours, the dead and alive were examined to obtain mortality. In order to examine the residual effect, the pot was then left as it was for 7 days, and the test insects were liberated in the same manner as above. After 24 hours, the mortality was examined. The experiment was carried out in a greenhouse and the number of replications was three.

[9] = test system: carmine mites (Tetranychus cinnabarinus); test: Test Example 4: spray test against carmine mites on rice plants; type: in vivo; settings: 500 ppm spray, all stages, after 10 days
Procedure: The emulsifiable concentrate of each of the present compounds (1) and (6) prepared in Preparation Example 1 was diluted with water so that the concentration of the active ingredient was 500 ppm. The dilute liquor was thoroughly sprayed on rice plants (grown in a 1/10,000 are Wagner's pot) on which carmine mites (Tetranychus cinnabarinus) in all stages were made parasitic.

Compound	alive green rice leafhoppers found [1]	LC50 at 48 h [2] [µg/mL]	killifish survival [3]	LC50 [4] [µg/mL]	larvae killed [5] [%]	Safety coefficient to fishes (a)/(b) [6]	LC50 at 48 h [7] [µg/mL]	mortality at 400 ppm ([8]; 400 ppm spray, 24 hours after liberation, greenhouse, read-out: Mortality, effect immediately after treatment) [%]	mortality at 400 ppm ([8]; 400 ppm spray, insects liberated 7 days after treatment, 24 hours, greenhouse, read-out: Mortality, effect 7 days after treatment) [%]	spreading of the damage to rice plants by carmine mites [9]	mortality at 400 ppm ([8]; 24 h, read-out: Mortality, effect immediately after treatment) [%]	mortality at 400 ppm ([8]; read-out: Mortality, effect 7 days after treatment) [%]
CC1(C)[C@H](C(=O)OC(C#N)c2cccc(Oc3ccc(Br)cc3)c2)[C@H]1C(Br)C(Cl)(Cl)Br (relative stereo) [(2), m-(p-Bromophenoxy)-α-cyanobenzyl dl-trans-2,2-dimethyl-3-(1,2-dibromo-2,2-dichloroethyl)cyclopropanecarboxylate]	no alive green rice leafhoppers were found	> 1	all the killifishes were alive	–	–	–	–	–	–	–	–	–
CC1(C)[C@H](C(=O)OC(C#N)c2cccc(Oc3ccc(Br)cc3)c2)[C@@H]1C(Br)C(Cl)(Cl)Br (relative stereo) [(3), m-(p-Bromophenoxy)-α-cyanobenzyl dl-cis-2,2-dimethyl-3-(1,2-dibromo-2,2-dichloroethyl)cyclopropanecarboxylate]	–	> 1	–	–	–	–	–	–	–	–	–	–
CC1(C)C(C(=O)OC(C#N)c2cccc(Oc3ccc(Br)cc3)c2)C1C(Br)C(Cl)(Cl)Br (stereo not drawn) [(1), m-(p-Bromophenoxy)-α-cyanobenzyl 2,2-dimethyl-3-(1,2-dibromo-2,2-dichloroethyl)cyclopropanecarboxylate]	no alive green rice leafhoppers were found	> 1	all the killifishes were alive	5.8 (≈ 8.85 µM)	100	333	4 (≈ 6.11 µM)	100	100	the spreading of the damage could be prevented	–	–
CC1(C)C(C(=O)OC(C#N)c2cccc(Oc3ccc(Br)cc3)c2)C1C(Br)C(Br)(Br)Br (stereo not drawn) [(4), m-(p-Bromophenoxy)-α-cyanobenzyl 2,2-dimethyl-3-(1,2,2,2-tetrabromoethyl)cyclopropanecarboxylate]	no alive green rice leafhoppers were found	–	all the killifishes were alive	10 (≈ 13.4 µM)	–	> 500	> 10	–	–	–	–	–
CC1(C)[C@H](C(=O)OC(C#N)c2cccc(Oc3ccc(Br)cc3)c2)[C@H]1C(Br)C(Br)(Br)Br (stereo partly drawn) [(5), m-(p-Bromophenoxy)-α-cyanobenzyl d-trans-2,2-dimethyl-3-(1,2,2,2-tetrabromoethyl)cyclopropanecarboxylate]	no alive green rice leafhoppers were found	–	all the killifishes were alive	1.7 (≈ 2.29 µM)	–	> 1667	> 5	–	–	–	–	–
CC1(C)[C@H](C(=O)OC(C#N)c2cccc(Oc3ccc(Br)cc3)c2)[C@@H]1C(Br)C(Br)(Br)Br (stereo partly drawn) [(6), m-(p-Bromophenoxy)-α-cyanobenzyl d-cis-2,2-dimethyl-3-(1,2,2,2-tetrabromoethyl)cyclopropanecarboxylate]	–	–	–	9.5 (≈ 12.8 µM)	–	> 263	> 5	–	–	the spreading of the damage could be prevented	–	–
CC1(C)C(C(=O)OC(C#N)c2cccc(Oc3ccccc3)c2)C1C(Br)C(Cl)(Cl)Br (centres unmarked) [(A), reference compound]	–	0.00395 (≈ 0.00686 µM)	–	5 (≈ 8.68 µM)	–	50	0.5 (≈ 0.868 µM)	–	–	–	–	–
CC1(C)C(C(=O)OC(C#N)c2cccc(Oc3ccc(F)cc3)c2)C1C(Br)C(Cl)(Cl)Br (centres unmarked) [(B), reference compound]	–	0.0028 (≈ 0.00471 µM)	–	6.5 (≈ 10.9 µM)	–	8	0.1 (≈ 0.168 µM)	–	–	–	–	–
CNC(=O)Oc1ccc(C)c(C)c1 [MPMC, 3,4-Xylyl Nmethylcarbamate-, reference compound]	–	–	–	–	–	–	–	–	–	–	100	0
